Literature values in patent US20120129153A1, “Diagnostic method for the prediction of the development and control of the effectiveness of the treatment of oncological illnesses” (priority 2010, published 2012).

Columns and labels:
[1] = tested on: EBV-associated nasopharyngeal carcinomas; settings: EBV-associated nasopharyngeal carcinomas in athymous mice
[2] = tested on: neuroblastomal cells infected by HCMV; settings: HCMV-infected neuroblastomal cells resistant to cysplatin and etoposide; virus reproduction blocked with Ganciclovir

Structure (SMILES)	induction of apoptosis in EBV-transformed epithelial cells [1]	sensitivity of the cells to the action of anti-tumor drugs [2]
Nc1ccn(C[C@@H](CO)OCP(=O)(O)O)c(=O)n1 [Cidofovir, (S)-1-(3-hydroxy-2-phpsphonyl-methoxypropyl)cytosine]	causes a quick induction of apoptosis	
Nc1nc(O)c2ncn(COC(CO)CO)c2n1 [Ganciclovir]		fully restored
